Assay results reported in patent US12336981B2, “Compounds and compositions for the inhibition of NAMPT” (Valo Health, Inc., priority 2010, dated 2025).
Read-outs that look alike come from different tables or passages of the source.

How the values were obtained:
[1] = target: T1, NAMPT (Homo sapiens, UniProt P43490); test: Biochemical inhibition assay: NAMPT enzymatic reaction, NMN quantified by mass spectrometry
T1 construct: His tag; host or cells: E. coli
Procedure, shortened: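 Inhibition of E. coli-expressed His-tagged human NAMPT, measured as NMN formation by mass spectrometry after a 30 min room-temperature reaction containing 1 μM NAM, 100 μM PRPP and 2.5 mM ATP.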

[2] = system: A2780 cells; test: In-vitro cell proliferation assay (SRB), A2780 cells; type: cell-based; conditions: Homo sapiens, A2780, 72 h
Procedure, shortened: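 Growth inhibition was derived from background-corrected SRB absorbance (570 nm), measured on cells fixed in 6% TCA after three days of compound treatment under 5% CO2 at 37° C.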

[3] = NAMPT enzymatic reaction, read-out: Biochem IC50
[4] = A2780 cells, 72 hours, SRB assay, read-out: A2780 IC50
[5] = A2780 cells, 72 hours, SRB, read-out: A2780 IC50
[6] = NAMPT enzymatic assay, read-out: Biochem IC50

T1 sequence (P43490 whole entry): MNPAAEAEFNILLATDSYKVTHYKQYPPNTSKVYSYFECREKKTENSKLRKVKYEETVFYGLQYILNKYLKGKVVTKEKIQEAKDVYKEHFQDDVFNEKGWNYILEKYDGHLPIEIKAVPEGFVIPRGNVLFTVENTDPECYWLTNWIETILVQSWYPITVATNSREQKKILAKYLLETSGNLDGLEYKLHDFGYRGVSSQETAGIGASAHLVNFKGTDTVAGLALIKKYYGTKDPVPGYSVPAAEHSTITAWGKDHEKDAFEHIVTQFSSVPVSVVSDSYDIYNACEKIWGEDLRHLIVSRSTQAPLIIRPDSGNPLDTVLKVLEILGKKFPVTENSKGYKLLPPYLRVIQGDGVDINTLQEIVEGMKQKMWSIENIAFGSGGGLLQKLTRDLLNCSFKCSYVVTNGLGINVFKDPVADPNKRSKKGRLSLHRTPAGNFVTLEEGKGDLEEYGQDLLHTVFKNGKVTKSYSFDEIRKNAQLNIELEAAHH

Compound | IC50 [1, 3] [µM] | IC50 [2, 5] [µM] | IC50 [1, 6] [µM] | also measured
Cc1cc(Cl)ccc1S(=O)(=O)c1ccc(CNC(=O)c2cc3cnccc3[nH]2)cc1 [N-({4-[(4-chloro-2-methylbenzene)sulfonyl]phenyl}methyl)-1H-pyrrolo[3,2-c]pyridine-2-carboxamide] | 0.027 | – | – | IC50 [2, 4]: 0.025 µM
O=C(NCc1ccc(S(=O)(=O)c2cccc(Cl)c2)cc1)c1cc2ccncc2s1 [N-({4-[(3-chlorobenzene)sulfonyl]phenyl}methyl)thieno[2,3-c]pyridine-2-carboxamide] | 0.005 | – | – | IC50 [2, 4]: 0.003 µM
O=C(NCc1ccc(S(=O)(=O)c2cc(Cl)cc(Cl)c2)cc1)c1ccc2nccn2c1 [N-({4-[(3,5-dichlorobenzene)sulfonyl]phenyl}methyl)imidazo[1,2-a]pyridine-6-carboxamide] | 0.00549 | 0.00128 | – | –
O=C(NCc1ccc(S(=O)(=O)c2ccc(F)c(C(F)(F)F)c2)cc1)c1ccc2nccn2c1 | – | 0.0017 | 0.004 | –
COc1ccc(S(=O)(=O)c2ccc(CNC(=O)c3cc4cnccc4[nH]3)cc2)cc1F [N-({4-[(3-fluoro-4-methoxybenzene)sulfonyl]phenyl}methyl)-1H-pyrrolo[3,2-c]pyridine-2-carboxamide] | 0.005 | – | – | IC50 [2, 4]: 0.004 µM
CCOc1ccc(S(=O)(=O)c2ccc(CNC(=O)c3cnc4nccn4c3)cc2)cc1F | 0.0009 | 0.0031 | – | –
Cc1cc(S(=O)(=O)c2ccc(CNC(=O)c3cc4ccncc4o3)cc2)ccc1F | 0.0132 | 0.006 | – | –
CC(=O)c1cccc(S(=O)(=O)c2ccc(CNC(=O)c3cc4ccncc4s3)cc2)c1 [N-({4-[(3-acetylbenzene)sulfonyl]phenyl}methyl)thieno[2,3-c]pyridine-2-carboxamide] | 0.004 | – | – | IC50 [2, 4]: 0.0026 µM
COc1ccc(OC)c(S(=O)(=O)c2ccc(CNC(=O)c3cc4ccncc4s3)cc2)c1OC [N-({4-[(2,3,6-trimethoxybenzene)sulfonyl]phenyl}methyl)thieno[2,3-c]pyridine-2-carboxamide] | – | 0.0055 | 0.012 | –
O=C(NCc1ccc(S(=O)(=O)c2ccc(OCC(F)(F)F)c(F)c2)cc1)c1cc2ccncc2o1 | – | 0.0238 | 0.0069 | –
CC(=O)c1ccccc1S(=O)(=O)c1ccc(CNC(=O)c2cc3ccncc3o2)cc1 [N-({4-[(2-acetylbenzene)sulfonyl]phenyl}methyl)furo[2,3-c]pyridine-2-carboxamide] | 0.0057 | 0.0065 | – | –
CCOc1cc(S(=O)(=O)c2ccc(CNC(=O)c3cc4cnccc4[nH]3)cc2)ccc1F | 0.0824 | 0.0044 | – | –
Cc1c(Cl)cccc1S(=O)(=O)c1ccc(CNC(=O)c2ccc3nccn3c2)cc1 | 0.0257 | 0.005 | – | –
O=C(NCc1ccc(S(=O)(=O)CCCc2ccccc2)cc1)c1cc2cnccc2[nH]1 [N-({4-[(3-phenylpropane)sulfonyl]phenyl}methyl)-1H-pyrrolo[3,2-c]pyridine-2-carboxamide] | 0.014 | 0.078 | – | –
O=C(NCc1ccc(S(=O)(=O)c2ccccc2Oc2ccccc2)cc1)c1cc2ccncc2s1 [N-({4-[(2-phenoxybenzene)sulfonyl]phenyl}methyl)thieno[2,3-c]pyridine-2-carboxamide] | 0.011 | – | – | IC50 [2, 4]: 0.0697 µM
Cc1cc(C)cc(S(=O)(=O)c2ccc(CNC(=O)c3cnc4[nH]ncc4c3)cc2)c1 | 0.0104 | 0.0061 | – | –
O=C(NCc1ccc(S(=O)(=O)c2ccc(F)c(F)c2)cc1)c1cnc2nccn2c1 | 0.0041 | 0.0363 | – | –
COc1ccc(S(=O)(=O)c2ccc(CNC(=O)c3cc4ccncc4s3)cc2)c(C(F)(F)F)c1 | – | 0.013 | 0.0217 | –
COc1cc(C)cc(S(=O)(=O)c2ccc(CNC(=O)c3cc4ccncc4o3)cc2)c1 | 0.0022 | 0.0016 | – | –
O=C(NCc1ccc(S(=O)(=O)c2ccc(-n3cccn3)cc2F)cc1)c1cnc2[nH]ncc2c1 | – | 0.0344 | 0.0389 | –
COc1cncc(S(=O)(=O)c2ccc(CNC(=O)c3cc4ccncc4s3)cc2)c1 [N-{[4-(5-methoxypyridine-3-sulfonyl)phenyl]methyl}thieno[2,3-c]pyridine-2-carboxamide] | – | 0.0016 | 0.009 | –
O=C(NCc1ccc(S(=O)(=O)c2c(Cl)cccc2Cl)cc1)c1ccc2nccn2c1 | 0.0012 | 0.0188 | – | –
O=C(NCc1ccc(S(=O)(=O)Nc2ccccc2N2CCOCC2)cc1)c1cc2cnccc2[nH]1 [N-[(4-{[2-(morpholin-4-yl)phenyl]sulfamoyl}phenyl)methyl]-1H-pyrrolo[3,2-c]pyridine-2-carboxamide] | 0.019 | – | – | IC50 [2, 4]: 0.017 µM
CCc1ccccc1S(=O)(=O)c1ccc(CNC(=O)c2cc3ccncc3s2)cc1 [N-({4-[(2-ethylbenzene)sulfonyl]phenyl}methyl)thieno[2,3-c]pyridine-2-carboxamide] | 0.005 | – | – | IC50 [2, 4]: 0.0029 µM

Compound | IC50 [1, 3] [µM] | IC50 [2, 5] [µM] | IC50 [1, 6] [µM] | also measured
COc1cc(F)ccc1S(=O)(=O)c1ccc(CNC(=O)c2cnc3[nH]ncc3c2)cc1 [N-({4-[(4-fluoro-2-methoxybenzene)sulfonyl]phenyl}methyl)-1H-pyrazolo[3,4-b]pyridine-5-carboxamide] | 0.159 | 0.0742 | – | –
O=C(NCc1ccc(S(=O)(=O)c2cc(C(F)(F)F)ccc2Cl)cc1)c1cc2ccncc2o1 | – | 0.0141 | 0.0139 | –
O=C(NCc1ccc(S(=O)(=O)c2cccc3c2OCO3)cc1)c1cc2ccncc2s1 [N-{[4-(2H-1,3-benzodioxole-4-sulfonyl)phenyl]methyl}thieno[2,3-c]pyridine-2-carboxamide] | – | 0.0072 | 0.0033 | –
Cc1ccc(S(=O)(=O)c2ccc(CNC(=O)c3cnc4nccn4c3)cc2)cn1 [N-{[4-(6-methylpyridine-3-sulfonyl)phenyl]methyl}imidazo[1,2-a]pyrimidine-6-carboxamide] | – | 0.0555 | 0.0059 | –
CCOCc1ccccc1S(=O)(=O)c1ccc(CNC(=O)c2cnc3[nH]ncc3c2)cc1 | – | 0.0612 | 0.052 | –
O=C(NCc1ccc(S(=O)(=O)Nc2ccccc2CO)cc1)c1cc2cnccc2[nH]1 [N-[(4-{[2-(hydroxymethyl)phenyl]sulfamoyl}phenyl)methyl]-1H-pyrrolo[3,2-c]pyridine-2-carboxamide] | 0.03 | – | – | IC50 [2, 4]: 0.006 µM
O=C(NCc1ccc(S(=O)(=O)c2ccccc2)cc1)c1ccc2cnccc2c1 [N-{[4-(benzenesulfonyl)phenyl]methyl}isoquinoline-6-carboxamide] | 16.1 | – | – | IC50 [2, 4]: 21.3 µM
CCCCOc1ccc(Cl)cc1S(=O)(=O)c1ccc(CNC(=O)c2cnc3nccn3c2)cc1 | 0.0037 | 0.0628 | – | –
O=C(NCc1ccc(S(=O)(=O)c2nccs2)cc1)c1ccc2nccn2c1 [N-{[4-(1,3-thiazole-2-sulfonyl)phenyl]methyl}imidazo[1,2-a]pyridine-6-carboxamide] | – | 0.0994 | 0.021 | –
O=C(NCc1ccc(S(=O)(=O)c2nccs2)cc1)c1cc2ccncc2o1 [N-{[4-(1,3-thiazole-2-sulfonyl)phenyl]methyl}furo[2,3-c]pyridine-2-carboxamide] | – | 0.0786 | 0.0198 | –
O=C(NCc1ccc(S(=O)(=O)c2cccc(OC(F)F)c2)cc1)c1cc2ccncc2o1 | – | 0.003 | 0.0028 | –
CC(=O)c1ccccc1S(=O)(=O)c1ccc(CNC(=O)c2cnc3[nH]ncc3c2)cc1 [N-({4-[(2-acetylbenzene)sulfonyl]phenyl}methyl)-1H-pyrazolo[3,4-b]pyridine-5-carboxamide] | 0.0036 | 0.0114 | – | –
CN1CCN(c2ccc(S(=O)(=O)c3ccc(CNC(=O)c4ccc5nccn5c4)cc3)cc2)CC1 | – | 0.0002 | 0.001 | –
CS(=O)(=O)c1ccc(S(=O)(=O)c2ccc(CNC(=O)c3cc4cnccc4[nH]3)cc2)cc1 [N-({4-[(4-methanesulfonylbenzene)sulfonyl]phenyl}methyl)-1H-pyrrolo[3,2-c]pyridine-2-carboxamide] | 0.024 | – | – | IC50 [2, 4]: 0.012 µM
O=C(NCc1ccc(S(=O)(=O)c2ccc(F)c(F)c2)cc1)c1cc2ccncc2o1 | 0.0168 | 0.013 | – | –
Cc1cc(-n2cccn2)ccc1S(=O)(=O)c1ccc(CNC(=O)c2ccc3nccn3c2)cc1 [N-[(4-{[2-methyl-4-(1H-pyrazol-1-yl)benzene]sulfonyl}phenyl)methyl]imidazo[1,2-a]pyridine-6-carboxamide] | – | 0.0036 | 0.00799 | –
O=C(NCc1ccc(S(=O)(=O)c2ccc(N3CCOCC3)nc2)cc1)c1cc2cnccc2[nH]1 [N-({4-[6-(morpholin-4-yl)pyridine-3-sulfonyl]phenyl}methyl)-1H-pyrrolo[3,2-c]pyridine-2-carboxamide] | – | 0.0015 | 0.0096 | –
CN(C)CCc1ccc(S(=O)(=O)c2ccc(CNC(=O)c3ccc4nccn4c3)cc2)cc1 | – | 0.0008 | 0.0021 | –
O=C(NCc1ccc(S(=O)(=O)c2cccc(CN3CCCCC3)c2)cc1)c1ccc2nccn2c1 | – | 0.0035 | 0.0091 | –
COc1ccc(S(=O)(=O)c2ccc(CNC(=O)c3cc4ccncc4s3)cc2)nc1 [N-{[4-(5-methoxypyridine-2-sulfonyl)phenyl]methyl}thieno[2,3-c]pyridine-2-carboxamide] | – | 0.0193 | 0.0071 | –
Cc1c(Cl)cccc1S(=O)(=O)c1ccc(CNC(=O)c2cc3ccncc3s2)cc1 | – | – | – | IC50 ([1]; Biochem IC50 uM): 0.0572 µM; IC50 ([2]; read-out: A2780 IC50 uM): 0.0071 µM
COc1ccc(Cl)c(S(=O)(=O)c2ccc(CNC(=O)c3cc4ccncc4s3)cc2)c1 | 0.0049 | 0.0053 | – | –
CCOc1ccc(S(=O)(=O)c2ccc(CNC(=O)c3cnc4[nH]ncc4c3)cc2)cc1 | 0.0151 | 0.0084 | – | –
